Measured values from patent publication US5554608A, “Inhibition of hair growth” (priority 1994, dated 1996).

Columns and labels:
[1] = system: flank organ hair growth; test: Golden Syrian hamster assay (flank organ hair growth, topical); assay type: in vivo; details: for Hair Mass (mean ± SEM) Treated: treated flank organ; for % Inhibition (of hair growth): vs vehicle-treated side, mean ± SEM
From the text: Male intact Golden Syrian hamsters are considered acceptable models for human beard hair growth in that they display oval shaped flank organs, one on each side, each about 8 mm. in major diameter, which grow thick black and coarse hair similar to human beard hair. These organs produce hair in response to androgens in the hamster. To evaluate the effectiveness of a particular PKC inhibitor, the flank organs of each of a group of hamsters are depilated by applying a thioglycolate based chemical depilatory (Surgex). To one organ of each animal 10-25 μl. of vehicle alone once a day is applied, while to the other organ of each animal an equal amount of vehicle containing a PKC inhibitor is applied. After thirteen applications (one application per day for five days a week), the flank organs are shaved and the amount of recovered hair (hair mass) from each is weighed. Percent-reduction of hair growth is calculated by subtracting the hair mass (mg) value of the test compound treated side from the hair mass value of the vehicle treated side; the delta value obtained is then divided by the hair mass value of the vehicle treated side, and the resultant number is multiplied by 100.
The above-described assay will be referred to herein as the "Golden Syrian hamster" assay.

[2] = system: PKC; test: PKC activity assay in flank organ hair follicle homogenate (32P phosphorylation of acetylated-myelin basic protein); assay type: biochemical, Golden Syrian hamster
Method: PKC activity was assayed in hair follicles isolated from flank organs using a commercial assay kit obtained from GIBCO BRL (Gaithersburg, Md.). The assay is based on the phosphorylation (incorporation of ^32 -P into) of acetylated-myelin basic protein. After isolation, the flank organ hair follicles were washed in phosphate-buffered saline and homogenized in a buffer containing 20 mM Tris, pH 7.5, 0.5 mM EDTA, 0.5% Triton X-100, 10 mM β-mercaptoethanol, and 25 μg/each of the protease inhibitors aprotinin and leupeptin. The hair follicle homogenate was added to the PKC reaction mixture at a final concentration of 10-20 μg/assay. The assay also included buffer, H2 O, phospholipid. The assay was performed in the presence or absence of select PKC inhibitors. The reaction mixture volume was 50 μl, the ^32 P-ATP substrate was added in a volume of 10 μl. The reaction proceeded at 32° for 15 minutes, whereupon a 16.3 μL aliquot was removed from the reaction mixture and spotted onto a paper filter. Filters were washed twice in 1% phosphoric acid with gentle shaking for 5 minutes. Filters were then washed twice in H2 O and placed in scintillation vials. ^32 P-Incorporation, a measure of the enzyme activity, was determined using standard liquid scintillation techniques.

[3] = dose 10% in vehicle A, thirteen applications, pH differs per compound (4.0-8.5)
[4] = dose 10% in vehicle C, pH 5.5, thirteen applications
[5] = dose 7.5% in vehicle B, pH 7.5, thirteen applications

Row | Compound | Hair Mass (mean ± SEM) Treated [1, 3] | % Inhibition (of hair growth) [1, 3] | other results
1 | CN1CCN(CCCN2c3ccccc3Sc3ccc(C(F)(F)F)cc32)CC1 [Trifluoperizine] | 1.03 ± .16 mg | 56 ± 6% | inhibition of PKC activity ([2]; at 500 μM): 42%
2 | COc1cc(/C=C/C(=O)CC(=O)/C=C/c2ccc(O)c(OC)c2)ccc1O [Curcumin] | – | – | Hair Mass (mean ± SEM) Treated [1, 4]: 0.55 ± .11 mg; % Inhibition (of hair growth) [1, 4]: 68 ± 5%
3 | CC1(C)[C@@H](O[C@H]2O[C@H](C(=O)O)[C@@H](O)[C@H](O)[C@H]2O[C@@H]2O[C@H](C(=O)O)[C@@H](O)[C@H](O)[C@H]2O)CC[C@]2(C)[C@H]3C(=O)C=C4[C@@H]5C[C@@](C)(C(=O)O)CC[C@]5(C)CC[C@@]4(C)[C@]3(C)CC[C@@H]12 [Glycyrrhetinic acid glycoside] | 0.94 ± .17 mg | 46 ± 10% | inhibition of PKC activity ([2]; at 200 μM): ~100%
4 | CN(C)CCCN1c2ccccc2CCc2ccccc21 [Imipramine] | 0.94 ± .18 mg | 38 ± 5% | –
5 | CC1CNCCN1S(=O)(=O)c1cccc2cnccc12 (stereo not drawn) [H-7, 1(5-isoquinolinylsulfonyl)-2-methylpiperazine] | 0.81 ± .08 mg | 54 ± 3% | inhibition of PKC activity ([2]; at 200 μM): 86%
6 | CC1(C)[C@@H](O)CC[C@]2(C)[C@H]3C(=O)C=C4[C@@H]5C[C@@](C)(C(=O)O)CC[C@]5(C)CC[C@@]4(C)[C@]3(C)CC[C@@H]12 [18β-Glycyrrhetinic acid] | – | – | Hair Mass (mean ± SEM) Treated [1, 5]: 1.07 ± .10 mg; % Inhibition (of hair growth) [1, 5]: 44 ± 6%; inhibition of PKC activity ([2]; at 500 μM): 52%
7 | Cc1ccc(N(CC2=NCCN2)c2cccc(O)c2)cc1 [Phentolamine] | 1.61 ± .22 mg | 19 ± 9% | –
8 | CSc1ccc2c(c1)N(CCC1CCCCN1C)c1ccccc1S2 (stereo not drawn) [Thioridazine] | 0.74 ± .07 mg | 68 ± 4% | –
9 | CCCCCCCCCCCCCCCC(=O)OC[C@H](O)[C@H]1OC(=O)C(O)=C1O [L-Ascorbic acid 6-palmitate] | 1.48 ± .14 mg | 46 ± 5% | –
10 | COc1ccc(CCN(C)CCCC(C#N)(c2ccc(OC)c(OC)c2)C(C)C)cc1OC (stereo not drawn) [Verapamil] | 0.43 ± .05 mg | 69 ± 5% | –
